According to US20250352615A1, “COMPOSITIONS AND METHODS FOR THE MODULATION OF PIEZO1 AND TRPV4” (Duke University, priority 2021, published 2025):

Columns and labels:
TRPV4 [1] = biological target: T1, TRPV4 (Mus musculus, UniProt Q9EPK8); assay: Calcium imaging of TRPV4-mediated [Ca2+]i in pancreatic acini (agonists, shear stress, Yoda1 sustained phase); assay type: cell-based
T1 construct: endogenous in cells; host or cells: freshly isolated mouse pancreatic acini (C57BL/6J WT)
Experimental: (§1) Mouse pancreatic acini were isolated using a standard collagenase digestion protocol. Isolated acini were plated on a thin-layered, Matrigel-coated, glass-bottom, culture plate (MatTek, P35G-0-14-C). Freshly isolated acini were used in each experiment.
Parallel-plate fluid flow chambers (μ-Slide I 0.4 Luer, and μ-Slide I 0.2 Luer from Ibidi GmbH) were used to measure the shear stress-induced changes in intracellular calcium, mitochondrial depolarization, and trypsin activation. The constant flow rate with shear stress (T) was determined as follows: τ=η×[…] φ for μ-Slide I 0.4 Luer and τ=η×330.4 φ for μ-Slide I 0.2 Luer, where η=viscosity of the medium and φ=flow rate (according to the manufacturer's instructions, Ibidi).
(§2) Calcium imaging in pancreatic acini was performed as previously described. The chemicals used in calcium imaging experiments included the following: Yoda1 (Tocris; 5586), GsMTx4 (Abcam; ab141871), 5′,6′-EET (Santa Cruz Biotechnology; sc-221066), AA (Millipore Sigma; A3611), HC067047 (Tocris; 4100), GSK1016790A (Millipore Sigma; G0798), RN1734 (Tocris; 3746), AACOCF3 (Tocris; 1462), YM26734 (Tocris; 2522), GF109203X (Tocris; 0741), and CCK8 (Sigma-Aldrich).

pancreatic acini = assay: CCK-induced [Ca2+]i in pancreatic acini; assay type: cell-based, mouse; conditions: HC067 1 μM; CCK 1 nM
Experimental: as §1, §2

TRPV4 [2] = biological target: T1, TRPV4; assay: Calcium imaging of TRPV4-mediated [Ca2+]i in mouse PSCs; assay type: cell-based
Experimental: (§3) Mouse and human PSCs were isolated using collagenase digestion. Modified Krebs Henseleit Buffer (KHB) solution (100 mL) was prepared as previously described by Romac et al., Nat. Commun. 9(1):1715 (2018). Pancreatic tissue was digested with 2 mg of collagenase NB 8 (SERVA, catalog 17456) dissolved in 10 mL of modified KHB solution containing 1 mg soybean trypsin inhibitor (SBTI 1-S; Millipore Sigma, catalog T9003) and 20 mg BSA (Thermo Fisher Scientific; BP1600-100). Digestion solution (5 mL) was used to inflate the pancreas. Pancreas with 5 mL of digestion solution was incubated in a shaking water bath for 10 minutes at 37° C. The solution was then discarded. The pancreas tissue was cut into small pieces and digested with fresh 5 mL digestion buffer. Tissue was incubated in a shaking water bath for 40 minutes at 37° C. The cells were then separated from tissue by pipetting up-down with a 10 mL pipette and passed sequentially through a 70 μm and a 40 μm cell strainer. The filtrate was centrifuged at 150×g for 3 minutes at room temperature. The cells were washed with 10 mL Leibovitz's media (Thermo Fisher Scientific, catalog 11415-064), passed through a 20 μm filter, and centrifuged at 80×g for 3 minutes at room temperature. The supernate was removed, and isolated stellate cells were plated on a thin-layered Matrigel-coated glass bottom culture plate (MatTek, P35G-0-14-C). Before plating the cells, Matrigel solution (Corning, catalog 354234) at a ratio of 1.5:100 DMEM/F12 (Thermo Fisher Scientific, catalog 11330-032) was poured onto the culture plate and incubated for 2 hr at 37° C. to form a thin layer of Matrigel coating. Matrigel mixture was removed, and the plate was washed with PBS before cells were plated. Cell culture media, DMEM/F12 with 5% FBS was used for mouse stellate cells. Fresh, human pancreatic tissue was digested with collagenase as described above with modifications. […] The cell viability following Yoda1 treatment was analyzed using the Live/Dead cell imaging kit (Thermo Fisher Scientific, catalog R37601). […]

TRPV4 [3] = biological target: T2, TRPV4 (Homo sapiens, UniProt Q9HBA0); assay: Calcium imaging of TRPV4-mediated [Ca2+]i in human PSCs; assay type: cell-based
T2 construct: Fresh, human pancreatic tissue was digested with collagenase as described above with modifications; endogenous in cells; host or cells: primary human pancreatic stellate cells from fresh human pancreatic tissue
Experimental: as §3, with “temperature.” for “temperature. The supernate was removed, and isolated stellate cells were plated on a thin-layered Matrigel-coated glass bottom culture plate (MatTek, P35G-0-14-C). Before plating the cells, Matrigel solution (Corning, catalog 354234) at a ratio of 1.5:100 DMEM/F12 (Thermo Fisher Scientific, catalog 11330-032) was poured onto the culture plate and incubated for 2 hr at 37° C. to form a thin layer of Matrigel coating. Matrigel mixture was removed, and the plate was washed with PBS before cells were plated. Cell culture media, DMEM/F12 with 5% FBS was used for mouse stellate cells. Fresh, human pancreatic tissue was digested with collagenase as described above with modifications.”

KPCY cells = assay: Orthotopic KPCY cell PDAC model with TRPV4 blocker via osmotic minipump; assay type: in vivo, mouse; conditions: GSK2193874 20 mg/mL, 100 μL in subcutaneous osmotic minipump, 20 days; preliminary
Experimental: In this experimental model, KPCY cells (100,000 cells in 25 μL phosphate buffer saline pH 7, containing 1% Matrigel) are injected into the tail region of the pancreas with and without a TRPV4 blocker to investigate if a TRPV4 inhibitor can inhibit PDAC growth and stop cancer cell metastasis. For accurate and continuous dosing, the TRPV4 blocker is placed in an infusion osmotic minipump (ALZET) implanted subcutaneously. Mice are observed for 20 days. On day 20, liver and pancreas tissue are processed for microscopic imaging and quantification of mRNA levels. Serum samples are collected for analysis and quantification of pro-metastatic factors.
Tumor growth and serum SAA were measured 20 days after transplantation of KPCY cells into the pancreas, as described in FIG. 33. Mice were treated with GSK2193874 (20 mg/mL) dissolved in 6% cavitron saline buffer and 100 μL drug solution was loaded in an osmotic minipump implanted subcutaneously for 20 days.
KPCY cells resuspended in PBS+1% matrigel after trypsinization. Either 10,000 or 100,000 cells in 20 μl PBS were injected into the pancreatic tail. […]
Orthotopic injection of KPCY cells with implantation of micro-osmotic pump (Alzet, 1004) filled with either vehicle (6% cavitron W7 HP7 in water—Ashland) or GSK2193874 at 20 mg/mL. Mice were euthanized 20 days later, and organs were measured and harvested. […]

T1 sequence (Q9EPK8 whole entry): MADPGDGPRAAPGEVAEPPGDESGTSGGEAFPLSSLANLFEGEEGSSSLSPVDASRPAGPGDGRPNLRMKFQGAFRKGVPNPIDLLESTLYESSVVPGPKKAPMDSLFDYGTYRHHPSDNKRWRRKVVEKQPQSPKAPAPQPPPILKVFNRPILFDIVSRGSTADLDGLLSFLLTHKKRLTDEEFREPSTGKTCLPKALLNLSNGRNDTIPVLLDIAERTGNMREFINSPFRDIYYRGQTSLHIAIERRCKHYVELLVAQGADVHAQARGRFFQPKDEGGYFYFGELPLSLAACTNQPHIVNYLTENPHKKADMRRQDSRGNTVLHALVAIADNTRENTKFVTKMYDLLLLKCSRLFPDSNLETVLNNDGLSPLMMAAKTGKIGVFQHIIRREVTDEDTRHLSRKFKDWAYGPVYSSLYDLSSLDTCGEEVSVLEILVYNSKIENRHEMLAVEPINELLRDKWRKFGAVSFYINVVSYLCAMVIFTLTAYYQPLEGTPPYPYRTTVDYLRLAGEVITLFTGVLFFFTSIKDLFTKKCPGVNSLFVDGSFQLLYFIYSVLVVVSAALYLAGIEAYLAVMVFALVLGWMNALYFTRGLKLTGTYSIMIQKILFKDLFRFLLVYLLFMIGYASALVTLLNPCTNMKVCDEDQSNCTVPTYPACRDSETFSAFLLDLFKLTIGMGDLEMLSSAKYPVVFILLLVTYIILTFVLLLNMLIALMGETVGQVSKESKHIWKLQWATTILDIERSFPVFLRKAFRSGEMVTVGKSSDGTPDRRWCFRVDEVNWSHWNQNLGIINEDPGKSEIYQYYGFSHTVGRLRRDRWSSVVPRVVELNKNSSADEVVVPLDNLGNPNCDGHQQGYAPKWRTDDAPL
T2 sequence (Q9HBA0 whole entry): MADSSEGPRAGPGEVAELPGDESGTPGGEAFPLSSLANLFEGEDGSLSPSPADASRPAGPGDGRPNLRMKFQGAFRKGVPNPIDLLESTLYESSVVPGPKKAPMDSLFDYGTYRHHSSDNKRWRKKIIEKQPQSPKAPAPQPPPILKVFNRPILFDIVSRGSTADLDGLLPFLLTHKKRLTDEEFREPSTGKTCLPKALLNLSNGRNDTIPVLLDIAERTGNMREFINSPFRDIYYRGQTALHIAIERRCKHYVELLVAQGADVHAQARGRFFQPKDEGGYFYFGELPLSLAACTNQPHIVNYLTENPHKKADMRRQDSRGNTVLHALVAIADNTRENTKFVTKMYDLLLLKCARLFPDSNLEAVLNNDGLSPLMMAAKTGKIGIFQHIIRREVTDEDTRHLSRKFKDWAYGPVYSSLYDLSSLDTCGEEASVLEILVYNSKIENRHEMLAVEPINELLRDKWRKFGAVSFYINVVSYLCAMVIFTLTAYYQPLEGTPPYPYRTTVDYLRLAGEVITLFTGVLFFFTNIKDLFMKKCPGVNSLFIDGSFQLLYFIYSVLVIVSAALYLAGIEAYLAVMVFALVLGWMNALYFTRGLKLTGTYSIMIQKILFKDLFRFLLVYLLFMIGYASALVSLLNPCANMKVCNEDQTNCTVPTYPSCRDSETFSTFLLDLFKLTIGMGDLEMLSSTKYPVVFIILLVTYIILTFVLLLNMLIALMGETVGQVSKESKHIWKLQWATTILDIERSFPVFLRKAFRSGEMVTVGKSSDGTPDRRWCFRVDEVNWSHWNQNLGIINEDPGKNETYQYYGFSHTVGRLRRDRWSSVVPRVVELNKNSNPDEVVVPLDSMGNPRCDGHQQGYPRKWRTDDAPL

## Cc1c(C(=O)Nc2cccc(C(F)(F)F)c2)cc(-c2ccccc2)n1CCCN1CCOCC1 [HC067]
TRPV4 [1]; HC067 100 nM
  effect on AA- and 5′,6′-EET-induced [Ca2+]i increases: inhibited
TRPV4 [1]; HC067 100 nM, RN1734 30 μM
  effect on GSK101 (50 nM)-induced [Ca2+]i increase: inhibited
TRPV4 [1]; HC067 1 μM, 12 dyne/cm^2 for 30 seconds
  effect on shear stress-induced sustained [Ca2+]i elevation: blocked the sustained [Ca^2+]i elevation, leaving only transient alterations in [Ca^2+]i
TRPV4 [1]; HC067 1 μM, Yoda1 25 μM
  effect on Yoda1-stimulated sustained [Ca2+]i increase: completely blocked the Yoda1-stimulated (25 μM) sustained increase in [Ca^2+]i
Pancreatic acini
  effect on CCK-stimulated peak or sustained [Ca2+]i: did not affect the CCK-stimulated (1 nM) peak or sustained [Ca^2+]i changes
TRPV4 [2]; HC067 1 μM, mouse PSCs
  effect on GSK1016790A-induced sustained [Ca2+]i elevation: blocked
TRPV4 [3]; HC067 1 μM, human PSCs
  effect on GSK1016790A-induced sustained [Ca2+]i elevation: blocked

## O=C(NC1(c2ccccc2)CC1)c1c(CN2CCC(N3CCCCC3)CC2)c(-c2cccc(C(F)(F)F)c2)nc2cc(Br)ccc12 [GSK2193874]
KPCY cells
  pancreatic cancer (PDAC) growth: inhibited pancreatic cancer growth
  serum SAA levels: reduced serum SAA levels

## CC(C)C[C@H](NC(=O)c1cc2ccccc2s1)C(=O)N1CCN(C(=O)[C@H](CO)NS(=O)(=O)c2ccc(Cl)cc2Cl)CC1 [GSK101]
TRPV4 [1]; GSK101 50 nM, arachidonic acid 20 μM, 5′,6′-EET 5 μM
  agonist effect on [Ca2+]i: induced a significant increase in [Ca^2+]i
TRPV4 [2]; GSK101 100 nM, quiescent mouse PSCs
  agonist effect on [Ca2+]i: produced a sustained elevation in [Ca^2+]i
TRPV4 [3]; GSK101 100 nM, quiescent human PSCs
  agonist effect on [Ca2+]i: produced a sustained elevation in [Ca^2+]i
